Measurements as given in patent publication US20250049747A1, “USE OF HYPERPOLARIZING AGENTS ALONE AND IN COMBINATION WITH OTHER THERAPEUTIC AGENTS FOR TREATING CANCERS INCLUDING GLIOBLASTOMA” (Trustees of Tufts College, priority 2021, published 2025).

Columns and labels:
[1] = breast cancer xenograft model in immunodeficient mice; cited from earlier work
human neuronal cells = experiment: Live/Dead assay on human neuronal cells; assay type: cell-based; details: human neurons, 3 day treatment
Method: Human neuronal cells were differentiated from human induced neural stem cells (hiNSCs) (passage 7-10), a generous gift from David Kaplan, as described previously. Briefly, hiNSCs were grown on mouse embryonic fibroblast (MEF) feeder cells until ready to differentiate into neurons. Cells were then seeded on Poly-D-Lysine (A3890401, ThermoFisher) and laminin (L2020, Sigma) coated 96 well plates at a density of 128,000 cells/mL. Cells were differentiated in Neurobasal (12348017, ThermoFisher) media supplemented with 2% B27 (17504044, Gibco), 1% Glutamax, and 1% antibiotic-antimycotic for 7 days with media changes every 2 days. At the end of the 7 days the treatments were added in the differentiation media for 3 days.
Dye Staining Protocols. For the Live/Dead assay, 1 μM Calcein Green AM and 0.5 μM ethidium homodimer-1 (L3224, ThermoFisher) were added to PBS along with 10 μg/mL of Hoechst to make the staining solution. Half the media was removed from the human neuronal cells that had been incubated with treatments for 3 days and replaced with staining solution. […] Cells were then incubated for 15 min at 37° C. and imaged. For resting membrane potential staining, DiBAC4(3) was used. U87 cells were seeded at 10,000 cells per mL on Matrigel coated plates as described above. […] Images were then analyzed using a CellProfiler pipeline. […]

[2] = human, in vivo; cited from earlier work

Row | Compound | toxicity on the heart or on normal breast epithelial cells [1] | toxicity by Live/Dead stain compared to control (human neuronal cells) | blood brain barrier penetrance [2]
1 | O=C(Nc1cc(C(F)(F)F)ccc1O)Nc1cc(C(F)(F)F)ccc1O [NS1643] | did not show any overt toxicity |  | 
2 | COc1ccnc(C[S+]([O-])c2nc3ccc(OC(F)F)cc3[nH]2)c1OC (stereo not drawn) [Pantoprazole, pantoprazole] |  | slight increase in toxicity that was significant compared to control | 2%
